According to patent US10806121B2, “Animal litter containing a pheromone composition” (Sergeant's Pet Care Products, LLC, priority 2014, dated 2020):

System: cats
Assay: Study 2: behavior scores of paired unfamiliar cats, CON litter Day 1 then RP litter Day 2
Format: in vivo
Parameters: litter box weight, RP after / litter box weight, Change (RP): unit not given here
Settings: for Average aggression score by pair, Day 2 (RP): total possible 48
Procedure: During the studies, cat behavior was captured on video for the duration of the 24- or 48-hour period depending on the specific study. Red lights were used at night to allow for continuous observation. A scan sampling method was used to record cat behaviors each 5 minutes. The recorded videos were subsequently reviewed and analyzed in each 5-minute scan sample, with tape playing 30 frames per second. At each 5-minute time point, each cat was categorized as anxious or relaxed. Aggression or litter box usage occurred between 5-minute periods were also noted. Because each scan sample is of 5-minute period, a total of 24 observations for each individual behavior are possible for each 2 hours. The instances of an individual behavior (An; n=1, 2, 3, . . . 24) in each 5-minute period were totaled for instances in each 2 hours (Bm=ΣAn, n=1, 2, 3, . . . 24; m=1, 2, 3, . . . 12) over 24 hours. The behavioral score for each 2-hour period is ΣAn/24 (n=1, 2, 3, . . . , 24). A behavioral score for a 24-hour period is ΣBm/12 (m=1, 2, 3, . . . 12). Among all behavior assessed, aggression, in-litter-box and anxiety were scored as yes or no during each 5 minutes (An=1 or 0; n=1, 2, 3, . . . 24). In addition, anxiety was measured as a percentage of the total time that the cat was experiencing anxiety. As such the anxiety related behavioral score for a 24-hour period is 0.347×ΣBm (%) (Bm=ΣAn(%), n=1, 2, 3, . . . 24; m=1, 2, 3, . . . 12), which reflects the percentage of time over 24 hours that the cats are experiencing anxiety. Moreover, when ranking cat pairs based on their level of aggression, the sum of the aggression scores of the individual cats in the pair was used to rank the cat pairs. Behavior data (behavioral scores) were further analyzed by Least Squares Analysis of variance using SAS (2011, SAS Inst., Inc., Cary, N.C.) software and the p-diff general linear model procedures to assess treatment differences within each time period. This statistical model included effects of treatment (TRT), cat-pair within treatment (TRT*CAT), time (HR), treatment by time (TRT*HR) and residual error (SE; used to test remaining effects). The previous study established that cats are attracted to litter treated with 2-methylbut-2-enal. In this study, 48 cats were used to determine the effect of litter treated with 2-methylbut-2-enal (RP) to the cat's various behaviors listed in Table 5. Litter was prepared in two batches, by mixing beads about 0.065″ in length both with and without 2-methylbut-2-enal. Blank beads were mixed thoroughly into one batch of litter so that the litter comprised about 3% (w/w) beads to form the control litter (CON). Similarly, beads containing a pheromone composition comprising 0.02% (w/w) 2-methylbut-2-enal (formed in accordance with Example 2 or 3) were mixed thoroughly into the other batch of litter so that the litter also comprised 3% (w/w) beads to form the treated litter (RP). Each batch of the litter was divided into 3 lb. aliquots that were ready to be tested. The 48 cats were randomly grouped into 24 same-sex pairs, which were divided into two groups with 12 pairs in each. The cats of each pair had either been housed individually or in groups of two previously, but had not been placed together prior to this study. As such, each cat was made sure to pair with an unfamiliar cat for the duration of the study. The first 12 pairs of two unfamiliar cats were tested over a 48-hour period. Subsequently, all chambers used were sanitized and aired out, and then the second group of 12 pair of cats was tested. Each pair of cats was placed in a kennel containing one food dish, one water dish, and one litter box. […]

Q: Which “reduction of anxiety of the cats in pairs” value (Day 1 untreated litter (21%) to Day 2 treated litter (12%)) does the source give for `C/C=C(\C)C=O` [RP, 2-methylbut-2-enal] here?
A: The value was roughly 50%.

Q: And the “Average behavior score: Head in food/H2O dish” value (Day 2, RP litter (3% (w/w) beads with 0.02% (w/w) 2-methylbut-2-enal), 24 cat pairs, Day 1 Con 0.90)?
A: Its value is 1.05.

Q: What about the “Average behavior score: Grooming other” value (Day 2, RP litter, 24 cat pairs, Day 1 Con 0.03) of the same compound?
A: Its value is 0.01.

Q: What about the “Average behavior score: In litter box - using” value (Day 2, RP litter, 24 cat pairs, Day 1 Con 0.07) of the same compound?
A: The value was 0.27.

Q: And the “Average behavior score: Neutral social interaction” value (Day 2, RP litter, 24 cat pairs, Day 1 Con 0.48)?
A: The value was 0.33.

Q: And the “Average behavior score: Play” value (Day 2, RP litter, 24 cat pairs, Day 1 Con 0.65)?
A: Its value is 0.52.

Q: And the “Average behavior score: Grooming self” value (Day 2, RP litter, 24 cat pairs, Day 1 Con 0.70)?
A: The value was 0.77.

Q: And the “Average behavior score: Lying/sitting - touching” value (Day 2, RP litter, 24 cat pairs, Day 1 Con 0.89)?
A: The value was 0.98.

Q: And the “Average behavior score: Sleeping” value (Day 2, RP litter, 24 cat pairs, Day 1 Con 1.98)?
A: Its value is 2.71.

Q: What about the “Average behavior score: In litter box - not using” value (Day 2, RP litter, 24 cat pairs, Day 1 Con 2.10) of the same compound?
A: The value was 2.73.

Q: What about the “Average behavior score: Aggression” value (Day 2, RP litter, 24 cat pairs, Day 1 Con 3.00) of the same compound?
A: Its value is 1.95.

Q: What about the “Average behavior score: Locomotion” value (Day 2, RP litter, 24 cat pairs, Day 1 Con 3.19) of the same compound?
A: The value was 4.66.

Q: And the “Average behavior score: Lying/sitting - not touching” value (Day 2, RP litter, 24 cat pairs, Day 1 Con 17.0)?
A: The value was 15.4.

Q: And the “Average behavior score: Anxiety (%)” value (Day 2, RP litter, 24 cat pairs, percentage of time over 24 hours, Day 1 Con 21.0)?
A: Its value is 12.0%.

Q: What about the “Average aggression score by pair, Day 2 (RP)” value (shortened to “Average aggression score”) (Pair 1 (M, M), rank 6, Day 1 (con) 2.92) of the same compound?
A: The value was 0.13.

Q: What about the “Average aggression score” value (Pair 2 (M, M), rank 24, Day 1 (con) 0.00) of the same compound?
A: The value was 0.00.

Q: And the “Average aggression score” value (Pair 3 (M, M), rank 4, Day 1 (con) 6.33)?
A: Its value is 3.42.

Q: And the “Average aggression score” value (Pair 4 (M, M), rank 3, Day 1 (con) 6.50)?
A: The value was 0.08.

Q: What about the “Average aggression score” value (Pair 5 (M, M), rank 5, Day 1 (con) 3.58) of the same compound?
A: The value was 4.67.

Q: What about the “Average aggression score” value (Pair 6 (M, M), rank 13, Day 1 (con) 1.08) of the same compound?
A: Its value is 0.13.

Q: And the “Average aggression score” value (Pair 7 (F, F), rank 20, Day 1 (con) 0.04)?
A: Its value is 0.33.

Q: What about the “Average aggression score” value (Pair 8 (F, F), rank 14, Day 1 (con) 0.50) of the same compound?
A: Its value is 0.88.

Q: And the “Average aggression score” value (Pair 9 (F, F), rank 19, Day 1 (con) 0.08)?
A: Its value is 0.08.

Q: What about the “Average aggression score” value (Pair 10 (F, F), rank 2, Day 1 (con) 10.13) of the same compound?
A: Its value is 3.25.

Q: What about the “Average aggression score” value (Pair 11 (F, F), rank 12, Day 1 (con) 1.63) of the same compound?
A: The value was 1.50.

Q: And the “Average aggression score” value (Pair 12 (F, F), rank 23, Day 1 (con) 0.00)?
A: The value was 0.00.

Q: And the “Average aggression score” value (Pair 13 (M, M), rank 1, Day 1 (con) 27.00)?
A: The value was 18.25.

Q: And the “Average aggression score” value (Pair 14 (M, M), rank 8, Day 1 (con) 2.54)?
A: Its value is 2.58.

Q: And the “Average aggression score” value (Pair 15 (M, M), rank 7, Day 1 (con) 2.54)?
A: Its value is 3.83.

Q: And the “Average aggression score” value (Pair 16 (C, M), rank 11, Day 1 (con) 1.63)?
A: Its value is 0.71.

Q: What about the “Average aggression score” value (Pair 17 (M, M), rank 9, Day 1 (con) 2.46) of the same compound?
A: The value was 2.13.

Q: What about the “Average aggression score” value (Pair 18 (M, M), rank 10, Day 1 (con) 2.38) of the same compound?
A: Its value is 1.88.

Q: What about the “Average aggression score” value (Pair 19 (M, M), rank 15, Day 1 (con) 0.33) of the same compound?
A: Its value is 0.00.

Q: And the “Average aggression score” value (Pair 20 (F, F), rank 22, Day 1 (con) 0.00)?
A: The value was 0.21.

Q: And the “Average aggression score” value (Pair 21 (F, F), rank 18, Day 1 (con) 0.08)?
A: Its value is 0.92.

Q: What about the “Average aggression score” value (Pair 22 (F, F), rank 16, Day 1 (con) 0.17) of the same compound?
A: Its value is 0.13.

Q: What about the “Average aggression score” value (Pair 23 (F, F), rank 17, Day 1 (con) 0.08) of the same compound?
A: Its value is 1.00.

Q: What about the “Average aggression score” value (Pair 24 (F, F), rank 21, Day 1 (con) 0.00) of the same compound?
A: Its value is 0.63.

Q: What about the “litter box weight, Change (RP)” value (RP after minus RP before, CON change 0.02) of the same compound?
A: Its value is 0.11.

Q: And the “Changes in litter box weights, % difference” value (RP change versus CON change)?
A: Its value is 438%.

Q: What about the “litter box weight, RP after” value (after 24 hours of use, RP before 2.1) of the same compound?
A: Its value is 2.21.

Q: What about the “reduction of aggression from Day 1 to Day 2” value (aggression score 3.0 to 1.95 after exposure to RP litter) of the same compound?
A: Its value is 68.3%.

Q: And the “increase of litter box use” value (score 0.07 (Day 1 CON) to 0.27 (Day 2 RP))?
A: Its value is 386%.
